Data from patent US20090062309A1, “Therapeutic compositions for the treatment of cardiovascular diseases and methods for use therefor” (priority 2007, published 2009).

Columns and labels:
[1] = cited from earlier work
[2] = system: subjects with stable chronic angina
Method: A double blind placebo-controlled, randomized trial was conducted in 25 subjects with stable chronic angina. […] All of the subjects were evaluated before and after the double-blind trial, thereby measuring a subject's angina clinical score (CCS Angina Class), ECG, and exercise tolerance as assessed by the Duke Treadmill Score (DTS). Methods for using the DTS with patients in need of coronary intervention and its acceptance as an accurate predictor of cardiac morbidity and mortality in CHD and CAD patients has been well established. See for example Azeem T., et al., Int J. Clin. Pract. (2001), 55(1):10-13. […] Participants' clinical and cardiac parameters were evaluated either monthly, quarterly, half yearly and yearly.

cell K uptake by RBC = assay: long-term assay from our laboratory: cell K uptake by RBC (results not shown)
[3] = system: subjects with CHD having decreased RBC K content; format: in vivo, human
Method: Subjects were evaluated by clinical angina (CCS angina Class II-IV), dyspnea, or arrhythmia.
Exclusion Criteria: Evidence of acute coronary syndrome, AMI, stroke or cardiac arrhythmias; NYHA class III-IV of heart failure, hyperkalemia. Informed consent was obtained in all. Other non CHD causes of chest pain, dyspnea, and arrhythmia had been ruled out.
In addition to that, a single dose of calcium gluconolactate (1 g/daily) was given to all subjects having plasma ionized ICa^2+ ≦1.1 mmol/L, while other Laboratory correction and drug assessment were conducted across the first 3-month period (Table 1) Safety control (ECG, Ion Transport Laboratory, BIA, Non-Invasive Hemodynamic) was obtained at 1, 3 and 6 months and 1 year. Clinical control was obtained weekly in the first month or as needed for physician or patient symptoms; thereafter a 3, 6 and 12 months.
The subjects were taken off any drug that might impair RBC transport, such as digitalis, β-blockers, or NSAID's, in subjects with RBC K^+ ≦90.2 mmol/L cell. Oral calcium gluconolactate (1 g/daily) was administered in all subjects with plasma ionized calcium ≦1.1 mmol/L. Subjects had correction of other plasma electrolyte abnormalities. The subjects were taken off any drug that may affect ventricular repolarization, as digoxin, calcium channel blockers (CCB), diuretics, β-blockers, or the like. […] Anti-aggregants or aspirin in subjects free of angina were discontinued after the 3rd month of treatment.
All subjects underwent: a) Serial ECG for LVH by Cornell or Sokolow-Lyon Criteria (QRS duration times Cornell voltage: R aVL+SV3, with 6 mm [added in women >2440 mm×ms], or Sokolow-Lyon voltage: [SV1+RV5/V6] >38 mm; along with LV strain pattern (classical ST-segment depressed, with inverted T-waves), or LVH voltage criteria with mild LV strain pattern (isoelectric, biphasic or non-symmetrical negative T-waves, without ST-segment depression), and ECG criteria for infarction and/or ischemia (Q-waves from previous AMI, decreased R-wave height, non-progressive R-wave voltages in precordial leads, ST-segment elevation […] often referred as injury current, ST-segment depression ≧[…] often downsloping from the J point, rectification of the ST segment, and isoelectric, biphasic, negative or inverted T-wave), intraventricular conduction disturbance, and arrhythmias); b) Non-invasive hemodynamic study (DP200M) for cardiac parameters (LV Ejection Time (LVET), LV dP/dT (LV delta pressure-time), Cardiac output and index (CO, Cl), Stroke Volume (SV), Pulse Wave Analysis (PWA) of Central Aortic Blood Pressure (BP), Aortic Systolic (SBP), Diastolic (DBP) and mean (m) BP, Aortic augmentation index; inflection point and reflected wave analysis, Systemic Vascular Resistance and Compliance (SVR/SVC), and Brachial Artery Distensibility (BAD), Brachial Artery Compliance (BAC); c) Ion Transport Studies for RBC (K^+, Na^+) plasma (K^+, Na^+, Cl^−, ICa^2+, Mg^2+), and 12-hours night urinary volume (K^+, Na^+, Cl^−, pH), d) Bio-Impedance Analysis (BIA, Quantum X, RJL Systems, MI, USA) for Total body Potassium, Total body water/Extracellular Water, Fat Mass (FM) and Fat-Free Mass (FFM) and e) Echocardiography was obtained at entry, 6 and 12 months periods.

[4] = 1-month trial, Amiloride 5 mg/d, N=14
[5] = 1-month, Amiloride 5 mg/d, N=14

Cl.NC(N)=NC(=O)c1nc(Cl)c(N)nc1N.O.O [Amiloride, 3,5-diamino-6-chloro-N-(diaminomethylene) pyrazinecarboxamide monohydrochloride, dihydrate]
hyperkalemia as secondary effect ([1]; as disclosed in various medical textbooks): hyperkalemia is a common secondary effect | hyperkalemia ([1]; intravenous doses of Amiloride (1 mg/Kg), subjects with chronic kidney disease, Levy Y. et al. 2008): absence of hyperkalemia | excretion ([1]; upon ingestion, humans): excreted from the kidneys unchanged | Double-Product [2, 4]: 25700 ± 4633 | Peak Exercise BP, diastolic [2, 4]: 94 ± 10 | Peak Exercise BP, systolic [2, 4]: 177 ± 19 | Peak Exercise HR [2, 4]: 144 ± 19 | Exercise Time ([2]; 1-month trial, Amiloride 5 mg/d, N=14, P<0.05 vs placebo): 7.95 ± 2.8 min | High Risk Value: Subjects (%) [2, 5]: 35.7% | Low Risk Value: Subjects (%) [2, 5]: 64.3% | subjects with improved ST-T alterations of ischemia ([2]; 4 weeks, Amiloride 5 mg daily, 9 out of 14): 64% | subjects free of angina ([2]; 4 weeks, Amiloride 5 mg daily, Twelve out of 14 subjects): 71% | adverse episodes of cardiac arrhythmia ([2]; 4 weeks, Amiloride 5 mg daily, exercise treadmill test): without any adverse episodes of cardiac arrhythmia | 1-Month DTS (Duke Treadmill Score) ([2]; Amiloride 5 mg/d, N=14, Baseline DTS −2.28 ± 7.0): 7.90 ± 4.2 | High Risk Value (DTS), changes from baseline to 1-month ([2]; Amiloride 5 mg/d, high risk subjects): *−3 ± −2.6 | Low Risk Value (DTS), changes from baseline to 1-month ([2]; Amiloride 5 mg/d, low risk subjects): *8.6 ± 2.3 | hereditable defect in cell K uptake by RBC (cell K uptake by RBC): reverses a hereditable defect in cell K uptake by RBC | RBC K ([3]; 1st month, baseline 84.5±4, p<0.001): 93.5±4 mmol/L cell | cardiovascular events or death ([3]; 2 years of follow-up): 0% | RBC K+ ([3]; 3rd month): remained improved | subjects with improved ST-segment depression or elevation and isoelectric, biphasic or inverted T-wave ([3]; 3rd month, CHD subjects, no nitrates, lower anti-aggregants or aspirin): 74% | LV Strain pattern ([3]; 3rd month, hypertensives): improved or almost reversed | LVH voltage criteria ([3]; 3rd month, hypertensives, p<0.001): significantly decreased | normotensive subjects with marked improved ST-segment depression or elevation and inverted T-waves ([3]; 6th month, 3 out 4): 75% | hypertensives subjects with improved LV Strain pattern ([3]; 6th month, about 4 out of 5): ~80% | ECG-LVH voltage, Sokolow-Lyon criteria ([3]; 6th month, baseline 29.3±5.2, p=0.001): 25.1±3.2 mm | ECG-LVH voltage, Cornell ([3]; 6th month, baseline 2577±509, p<0.02): 2353±254 mm×ms | subjects with previous inferior infarction whose ECGs remained unchanged for Q-waves ([3]; 6th month, these subjects were free of angina): 15% | QTc interval ([3]; human, in vivo): prolonged | hyperkalemia ([3]; human, in vivo): never observed | SVC (Systemic Vascular Compliance) ([3]; hypertensives, 1st month, baseline 0.92±0.16, p<0.003): 1.22±0.21 ml/mmHg | LV dP/dT ([3]; hypertensives, 1st month, baseline 1757±313, p<0.001): 1302±276 mmHg/s | BA Compliance ([3]; hypertensives, 1st month, baseline printed 0.57±0.021, p<0.005): 0.069±0.02 ml/mmHg | angina, single subject FIG. 7B ([3]; normotensive diabetic, after 5 months of Amiloride and calcium treatment): angina reversed | ECG change, single subject FIG. 3C ([3]; normotensive person, bypass surgery, infarction, instable angina, 6-months Amiloride and calcium): reversion of T-wave alterations | angina, single subject FIG. 7A ([3]; person, angina, diabetes, hypertension, after 4 months of Amiloride treatment): the angina reversed | clinical change, single subject FIG. 5B ([3]; person, hypertension, LVH, 3-months Amiloride, antihypertensive and vasodilators drugs): reversion of clinical symptoms of exertional angina, and palpitations | clinical change, single subject FIG. 4B ([3]; person, hypertension, infarction, heart failure, 2 months after addition of Amiloride and calcium gluconolactate): clinical improvement of angina (3 weeks), heart failure and hypertension | angina, single subject FIG. 6B ([3]; person, hypertension, post-infarction angina, Amiloride treatment): rapid reversion of angina (7 days) | ECG T-waves, single subject FIG. 4B ([3]; person, 2 months after addition of Amiloride and calcium gluconolactate): T-waves were improved | ECG T-wave, single subject FIG. 6B ([3]; person, after 5-months of Amiloride treatment): reversion of T-wave inversion | free of angina and symptoms of heart failure ([3]; within 1st month, Amiloride 5 mg/daily (calcium gluconolactate 1 g/daily if plasma ICa2+ ≦1.1 mmol/L), 75 CHD subjects): all subjects were free of angina and symptoms of heart failure
